Test results taken from patent US8173693B2, “Benzenesulfonamide derivatives and pharmaceutical composition thereof” (Purzer Pharmaceutical Co., Ltd., priority 2010, dated 2012).
Entries after “also recorded” stand apart in the source; their conditions may differ.

How the values were obtained:
[1] = system: HUVECs (human umbilical vein endothelial cells); assay: In vitro tube formation assay (capillary formation, VEGF-induced); assay type: cell-based
Method: At day 1, HUVECs (human umbilical vein endothelial cells) cocultured with human fibroblasts were incubated in optimized medium and maintained in a humidified chamber at 37° C. containing 5% CO2. […] The cells were stimulated with VEGF (25 ng/mL) without or with GM119 (0.1, 1 or 10 μM). The media were replaced at days 3, 6, and 8. At day 11, the tube-like structures of the umbilical vein endothelial cells were observed by an anti-human CD31 antibody (Kurabo, Tokyo, Japan), and the area of the tube-like structures was analyzed.

[2] = system: Human gastric adenocarcinoma AGS cells; assay: SRB assay; assay type: cell-based; conditions: 48 hr
[3] = system: 4T1-Luc cells; assay: In vivo evaluation, long-time treatment, mice implanted with 4T1-Luc cells
Method: GM119 (25 mg/kg) and Taxol (10 mg/kg) were simultaneously applied to a mouse implanted with 4T1-Luc cells for a long time to observe the effect of GM119 on the 4T1-Luc cells.
A suspension of 4T1-Luc cells in matrigel was injected into the breast adipocyte to obtain mice implanted with luciferase tumor cells. […] When the size of the tumor cells was achieved to 200-500 mm^3, the mice were divided into […], and the number of the mice in each group is ≧5. Then, 0/0, 0/25, 10/[…], or 10/0 mg/kg of Taxol/GM119 was abdominal-injected into the mice every two days until death of the mice, wherein GM119 and Taxol were dissolved in cremophor, and the volume of injection to each mouse is 50 μl. The weight and the number of the mice were recorded every day to analyze the change on the weight and the survival time of the mice. After the drugs were applied to the mice, the size of the tumor cells in the mice was evaluated with bioluminescence every two days.

[4] = system: 4T1-Luc cells; assay: In vitro analysis on cell morphology; assay type: cell-based, murine; conditions: 48 hr
Method: After the 4T1-Luc cells were treated with GM119, a phase-contrast microscope was used to observe the cell morphology of the 4T1-Luc cells. Cover glasses were placed in 6-well plates, and each well was seeded with 50,000 tumor cells. The tumor cells were developed in medium with 10% fetal bovine serum, and then treated with 0, 0.01, 0.1, 1, or 10 μM of GM119 for 48 hr. The cells were stained with Giemsa Stain solution (0.38 g of Giemsa powder, 15% of methanol, and 5% of glycerol). After the cells were washed, dried, and sealed, the images of the cells were photographed with a phase-contrast microscope.

[5] = system: H1299 non-small cell lung cancer; assay: SRB assay; assay type: cell-based; conditions: Homo sapiens, NCI-H1299, 48 hr
Method: (§1) All cell lines were maintained in RPMI 1640 supplied with 10% fetal bovine serum into 96-well microtiter plates and maintained in a humidified chamber at 37° C. containing 5% CO2. After 24 hr, cell lines in partial wells were fixed in situ with 10% trichloroacetic acid (TCA) to represent a measurement at the time of drug addition (T0). Then, cell lines in other wells were incubated with the benzenesulfonamide derivatives of the present invention for an additional 48 hr, and fixed in situ with 10% TCA to represent a measurement at the time of stopping reaction (Tx). After rinsing the plates with PBS and air-drying, 0.4% sulforhodamine B solution (weight per volume in 1% acetic acid) was added to each well and the plates were incubated for 10 min at room temperature. Unbound sulforhodamine B was removed with 1% acetic acid and the plates were air-dried. Cells bound with sulforhodamine B was subsequently solubilized with 10 mM Tris base (Trizma; Sigma). Cell proliferation was determined by measuring the optical density at 515 nm using a Thermomax microplate reader (Molecular Devices, Sunnyvale, Calif.). The half-inhibition concention (GI50) of the benzenesulfonamide derivatives of the present invention was obtained from the detected optical density.

[6] = system: CL1-5 non-small cell lung cancer; assay: SRB assay; assay type: cell-based; conditions: 48 hr
Method: as §1

[7] = system: HeLa Cervical cancer; assay: SRB assay; assay type: cell-based; conditions: Homo sapiens, 48 hr
Method: as §1

[8] = system: MCF-7/ADR multidrug-resistant breast cancer; assay: SRB assay; assay type: cell-based; conditions: Homo sapiens, NCI/ADR-RES
Method: as §1

[9] = system: COLO-205 Colon cancer; assay: MTT assay; assay type: cell-based; conditions: Homo sapiens, 72 hr
Method: (§2) All cell lines were maintained in RPMI 1640 supplied with 10% fetal bovine serum and maintained in a humidified chamber at 37° C. containing 5% CO2. Then, all cell lines were treated with compounds for 72 hr and subsequently incubated with 0.4 mg/mL of MTT at 37° C. for 2 hr. The medium was removed, and DMSO was added to dissolve MTT precipitate. Cell proliferation was determined by measuring the optical density at 540 nm using a Thermomax microplate reader (Molecular Devices, Sunnyvale, Calif.), and the IC50 values of the benzenesulfonamide derivatives of the present invention were calculated.

[10] = system: WI-38 Normal lung fibroblast; assay: MTT assay; assay type: cell-based; conditions: Homo sapiens
Method: as §2

[11] = system: HeLa Cervical cancer; assay: MTT assay; assay type: cell-based; conditions: Homo sapiens, 72 hr
Method: as §2

[12] = system: WSI Normal skin fibroblast; assay: MTT assay; assay type: cell-based
Method: as §2

[13] = system: Human colorectal adenocarcinoma HT-29 cells; assay: SRB assay; assay type: cell-based; conditions: 48 hr
[14] = system: Human breast carcinoma MCF-7 cells; assay: SRB assay; assay type: cell-based; conditions: MCF7, 48 hr
[15] = system: Human hepatoblastoma HepG2 cells; assay: SRB assay; assay type: cell-based; conditions: 48 hr
[16] = system: tumor cells; assay: Preliminary cytotoxicity assays (MTT, SRB), tumor cell panel; assay type: cell-based; conditions: comparison over Tables 1-4
Method: Human Bladder Cancer TSGH cells, Human hepatoblastoma HepG2 cells, Human colorectal adenocarcinoma HT-29 cells, human nasopharyngeal carcinoma KB cells, Human gastric adenocarcinoma AGS cells, Human breast carcinoma MCF-7 cells, lung carcinoma A549 cells, and Human prostate carcinoma PC-3 cells were used in the preliminary cytotoxicity assays of the benzenesulfonamide derivatives of the present invention, and the inhibition activity against the tumor cells was evaluated.
as §2
as §1, with “After rinsing the plates with PBS and air-drying, 0.4% sulforhodamine B solution (weight per volume in 1% acetic acid) was added to each well and the plates were incubated for 10 min at room temperature. Unbound sulforhodamine B was removed with 1% acetic acid and the plates were air-dried. Cells bound with sulforhodamine B was subsequently solubilized with 10 mM Tris base (Trizma; Sigma).” left out

Compound: COc1ccc(S(=O)(=O)Nc2cccc3c2[nH]c2c(C)ccc(C)c23)cc1 [Compound 6c, N-(5,8-Dimethyl-9H-carbazol-1-yl)-4-methoxybenzenesulfonamide]
- inhibition activity compared with suramin ([1]; 10 μM GM119 vs 10 μM suramin): almost equivalent to that of suramin
- inhibition of formation of tube-like structures induced by VEGF ([1]; VEGF 25 ng/mL, GM119 0.1, 1 or 10 μM, day 11): can inhibit the formation of the tube-like structures
- IC50 [2]: 1000 nM
- survival of the mice ([3]; long time: Taxol 10 mg/kg and/or GM119 25 mg/kg abdominal-injected every two days until death, FIG. 3): the survival time of the mice is the longest
- growth of the tumor cells (bioluminescence) ([3]; long-time treatment): the growth of the tumor cells can be inhibited
- growth of the 4T1 cells (microscope images) ([4]; 0.01 μM): the growth of the 4T1 cells can be inhibited
- inhibition of the 4T1 cells (microscope images) ([4]; 10 μM): the inhibition of the 4T1 cells is apparent
- GI50 [5]: 460 nM
- GI50 [6]: 260 nM
- GI50 [7]: 190 nM
- GI50 [8]: 390 nM
- IC50 [9]: 50 nM
- IC50 [10]: > 10000 nM
- IC50 [11]: 600 nM
- IC50 [12]: > 10000 nM
- IC50 [13]: 9000 nM
- IC50 [14]: > 10000 nM
- IC50 [15]: 1000 nM
- inhibitory activity against the tumor cells (in words) [16]: has the best inhibition activity; also recorded: has the highest inhibitory activity
